Test system: YAP/TAZ-TEAD transcription
Experiment: Reporter gene assay for measuring the inhibition of YAP/TAZ-TEAD transcription (TEAD-responsive element luciferase reporter in Hek293T cells)
Type: cell-based
Conditions: Homo sapiens, HEK-293T; Hek293T cells transfected with TEAD-responsive luciferase reporter, 24 hours incubation
Procedure: Hek293T cells are cultured in DMEM supplemented with 10% fetal bovine serum, Sodium pyruvate, Sodium bicarbonate, L-glutamine. The cells are harvested and transiently transfected with TEAD-responsive element luciferase reporter. Transfected cells are plated in 384-wells plate containing pre-diluted compounds. After 24 hours incubation at 37° C./5% CO2, assay plates were cooled down to RT and levelled to an equal volume per well, prior to the addition of 25 uL luciferase substrate SteadyLite (Perkin Elmer)/well. The plate was shaken for 10 min at 600 rpm, centrifuged for 1 min at 500 rpm and measured with an Envision reader (PerkinElmer). The amount of relative light units produced by the TEAD reporter is used to calculated percent of inhibition.
The percent of reporter inhibition was calculated in the presence of a positive control inhibitor (100% inhibition) versus a condition with the presence of the vehicle basal activity of the reporter (0% inhibition). The ability of a test compound to inhibit this activity was determined as:
Percentage inhibition=[1−((RLU determined in the presence of vehicle−RLU determined for sample with test compound present) divided by (RLU determined in the presence of vehicle−RLU determined for sample with positive control inhibitor))]*100
The activities of example compounds tested are depicted in Table 6. The activity ranges A, B and C refer to IC50 values in the reporter gene assay as follows: “A”: IC50<1 μM; “B”: 1 μM≤IC50≤20 μM and “C”: IC50>20 μM; NT=not tested.

EC50 [µM] | Structure (SMILES)
1 to 20 | CS(=O)(=O)NCc1nn(-c2ccc(C(F)(F)F)cc2)c2ccc(OCC3CCOC3)cc12 (racemic) [compound 44, N-[[5-[[rac-tetrahydrofuran-3-yl]methoxy]-1-[4-(trifluoromethyl)phenyl]indazol-3-yl]methyl]methanesulfonamide]
1 to 20 | CS(=O)(=O)NCc1nn(-c2ccc(C(F)(F)F)cc2)c2ccc(Oc3ccccc3)cc12 [Cpd. No. 45, N-[[5-phenoxy-1-[4-(trifluoromethyl)phenyl]indazol-3-yl]methyl]methanesulfonamide]
1 to 20 | CCC(=O)NCc1nn(-c2ccc(C(F)(F)F)cc2)c2ccccc12 [compound 2, N-((1-(4-(trifluoromethyl)phenyl)-1H-indazol-3-yl)methyl)propionamide]
1 to 20 | CCC(=O)NCc1nn(-c2ccc(OC(F)(F)F)cc2)c2ccccc12 [compound 5, N-((1-(4-(trifluoromethoxy)phenyl)-1H-indazol-3-yl)methyl)propionamide]
1 to 20 | CS(=O)(=O)NCc1nn(-c2ccc(OC(F)(F)F)cc2)c2ccccc12 [compound 6, N-((1-(4-(trifluoromethoxy)phenyl)-1H-indazol-3-yl)methyl)methanesulfonamide]
1 to 20 | O=S1(=O)CCCN1Cc1nn(-c2ccc(C(F)(F)F)cc2)c2ccccc12 [compound 7, 2-((1-(4-(trifluoromethyl)phenyl)-1H-indazol-3-yl)methyl)isothiazolidine 1,1-dioxide]
> 20 | CNC(=O)c1nn(-c2ccc(C(F)(F)F)cc2)c2ccccc12 [compound 8, N-methyl-1-(4-(trifluoromethyl)phenyl)-1H-indazole-3-carboxamide]
> 20 | Cn1cc(S(=O)(=O)NCc2nn(-c3ccc(C(F)(F)F)cc3)c3ccccc23)cn1 [compound 9, 1-methyl-N-((1-(4-(trifluoromethyl)phenyl)-1H-indazol-3-yl)methyl)-1H-pyrazole-4-sulfonamide]
> 20 | O=S(=O)(NCc1nn(-c2ccc(C(F)(F)F)cc2)c2ccccc12)c1cccnc1 [compound 10, N-((1-(4-(trifluoromethyl)phenyl)-1H-indazol-3-yl)methyl)pyridine-3-sulfonamide]
1 to 20 | O=S(=O)(NCc1nn(-c2ccc(C(F)(F)F)cc2)c2ccccc12)C1CC1 [compound 11, N-((1-(4-(trifluoromethyl)phenyl)-1H-indazol-3-yl)methyl)cyclopropanesulfonamide]
1 to 20 | CS(=O)(=O)NC(=O)c1nn(-c2ccc(C(F)(F)F)cc2)c2ccccc12 [compound 12, N-(methylsulfonyl)-1-(4-(trifluoromethyl)phenyl)-1H-indazole-3-carboxamide]
1 to 20 | CN(C)S(=O)(=O)NCc1nn(-c2ccc(C(F)(F)F)cc2)c2ccccc12 [compound 13, N,N-dimethyl-N′-((1-(4-(trifluoromethyl)phenyl)-1H-indazol-3-yl)methyl)sulfamide]
> 20 | O=C(NS(=O)(=O)C1CC1)c1nn(-c2ccc(C(F)(F)F)cc2)c2ccccc12 [compound 14, N-(cyclopropylsulfonyl)-1-(4-(trifluoromethyl)phenyl)-1H-indazole-3-carboxamide]
1 to 20 | O=C(NCC(O)CO)c1nn(-c2ccc(C(F)(F)F)cc2)c2ccccc12 (centres unmarked) [compound 15, N-(2,3-dihydroxypropyl)-1-(4-(trifluoromethyl)phenyl)-1H-indazole-3-carboxamide]
1 to 20 | CS(=N)(=O)NCc1nn(-c2ccc(C(F)(F)F)cc2)c2ccccc12 (centres unmarked) [compound 16, N-((1-(4-(trifluoromethyl)phenyl)-1H-indazol-3-yl)methyl)methanesulfonimidamide]
< 1 | O=C1NCCN1Cc1nn(-c2ccc(C(F)(F)F)cc2)c2ccccc12 [compound 17, 1-((1-(4-(trifluoromethyl)phenyl)-1H-indazol-3-yl)methyl)imidazoiidin-2-one]
< 1 | O=C1OCCN1Cc1nn(-c2ccc(C(F)(F)F)cc2)c2ccccc12 [compound 18, 3-((1-(4-(trifluoromethyl)phenyl)-1H-indazol-3-yl)methyl)oxazolidin-2-one]
